# Results as given in patent US8835353B2, “Germination acceleration” (Valent BioSciences Corporation, priority 2007, dated 2014).
# Key:
# [1] = test system: sweet corn (cv. Silver Queen); test: Pouch study: seed treatment, coleoptile and radicle growth at 10° C.; format: in vivo; conditions: 6BA 10 ppm, pouches at 10° C.
# Procedure: For all seed treatments, 1 ppm active ingredient refers to 1 microgram active ingredient per gram of seed. For these studies, GA3, GA4/7, 6BA, or CPPU were each dispensed into a 15 ml centrifuge tube, and 2.5 ml of de-ionized water was then added to each tube. The solution was mixed on a vortex mixer and 0.25 ml of this solution was then placed in another 50 ml. centrifuge tube along with 10 grams of sweet corn seed (cv. Silver Queen) or field corn (cv. Hybrid 2652) seed and rotated 360° on a Labquake Rotissarie for 10 minutes to ensure proper seed coverage. To simulate commercial seed treatments, the amount of solutions was just sufficient to wet the seeds. […] Pouch studies: A CYG germination pouch was drenched with 17 ml of 10° C. de-ionized water. Three treated seeds were placed in the trough of the germination paper, contained within the pouch. Pouches were placed in a Nalgene plastic container cooled to 10° C. The container was incubated in a 10° C. growth chamber with a 16 hour light cycle for the duration of the study. Seedling coleoptiles and radicles were measured by removing the seedling from the pouch and measuring with a ruler. […] The amount of applied is expressed as ppm or micrograms of compound per gram of seed. […]
# seedlings = test: Preliminary studies: seedling quality and radicle growth after seed treatment; format: in vivo, corn; conditions: high rates of 6BA (>10 ppm)
# [2] = test system: sweet corn (cv. Silver Queen); test: Pro-Mix study: seed treatment, coleoptile emergence and length at 10° C.; format: in vivo; conditions: ProMix at 10° C.
# Procedure: (§1) For all seed treatments, 1 ppm active ingredient refers to 1 microgram active ingredient per gram of seed. For these studies, GA3, GA4/7, 6BA, or CPPU were each dispensed into a 15 ml centrifuge tube, and 2.5 ml of de-ionized water was then added to each tube. The solution was mixed on a vortex mixer and 0.25 ml of this solution was then placed in another 50 ml. centrifuge tube along with 10 grams of sweet corn seed (cv. Silver Queen) or field corn (cv. Hybrid 2652) seed and rotated 360° on a Labquake Rotissarie for 10 minutes to ensure proper seed coverage. To simulate commercial seed treatments, the amount of solutions was just sufficient to wet the seeds. Seeds were dried overnight in weigh boats.
# Pro-Mix studies: Pro Mix potting media was cooled to 10° C. and then placed in a 20 inch×10 inch flat to a depth of 5 cm. A trough of twenty seeds/treatment were planted at a depth of 2 cm. Four trays of twenty seeds each were planted per treatment. The trays were incubated in a growth chamber set at 10° C., 16 hour light cycle. Corn emergence counts were made daily.
# Sweet corn (cv. Silver Queen) seeds were treated with solutions containing GA4/7, 6BA, or GA4/7 and 6BA, planted into ProMix soil, and held at 10° C. At 22 days after treatment, more seedlings from seeds treated with the combination treatment of GA4/7 and 6BA had emerged than seeds treated with 6BA or GA4/7 alone (Table 2).
# Sweet corn (cv. Silver Queen) seeds were treated with solutions containing GA3, 6BA, or GA3 and 6BA, planted into ProMix soil, and held at 10° C.
# [3] = test system: hybrid field corn (Hybrid 2652); test: Petri plate study: seed treatment, coleoptile emergence at 10° C.; format: in vivo; conditions: 6BA 10 ppm, petri plates at 10° C.
# Procedure: For all seed treatments, 1 ppm active ingredient refers to 1 microgram active ingredient per gram of seed. For these studies, GA3, GA4/7, 6BA, or CPPU were each dispensed into a 15 ml centrifuge tube, and 2.5 ml of de-ionized water was then added to each tube. The solution was mixed on a vortex mixer and 0.25 ml of this solution was then placed in another 50 ml. centrifuge tube along with 10 grams of sweet corn seed (cv. Silver Queen) or field corn (cv. Hybrid 2652) seed and rotated 360° on a Labquake Rotissarie for 10 minutes to ensure proper seed coverage. To simulate commercial seed treatments, the amount of solutions was just sufficient to wet the seeds. […] Petri plate studies: Each standard petri plate (100 mm×50 mm) contained 1 blue Anchor germination circle (3¼ inches in diameter) drenched with 7 ml of de-ionized water cooled to 10° C. Each treatment consisted of 4 petri plates of 10 seeds each. After plating, the petri plates were placed in a Nalgene plastic container cooled to 10° C. This in turn was incubated in a 10° C. growth chamber with a 16 hour light cycle for the duration of the study. Counts were made by visually examining each seed for radicle and coleoptile protrusion. Hybrid field corn seeds (cv. Hybrid 2652) were treated with solutions containing GA4/7 or 6BA or combinations of GA4/7 and 6BA, plated onto wetted paper in a petri plate, and held at 10° C.
# [4] = test system: sweet corn (cv. Silver Queen); test: as above; format: in vivo; conditions: petri plates at 10° C.
# Procedure: as §1
# Petri plate studies: Each standard petri plate (100 mm×50 mm) contained 1 blue Anchor germination circle (3¼ inches in diameter) drenched with 7 ml of de-ionized water cooled to 10° C. Each treatment consisted of 4 petri plates of 10 seeds each. After plating, the petri plates were placed in a Nalgene plastic container cooled to 10° C. This in turn was incubated in a 10° C. growth chamber with a 16 hour light cycle for the duration of the study. Counts were made by visually examining each seed for radicle and coleoptile protrusion. […]
smiles,measurement,setting,value
"c1ccc(CNc2ncnc3nc[nH]c23)cc1 [6BA, N^6-phenylmethyl-1H-purin-6-amine]",Coleoptile length (cm) at 22 days after treatment,[1],2.17 cm
same,Radicle length (cm) at 22 days after treatment,[1],2.78 cm
same,Radicle growth,seedlings,reduced radicle growth
same,Seedling quality,seedlings,substantially reduced seedling quality
same,Percent coleoptile emergence at 21 days after treatment,[2]; 6BA 10 ppm,3.7%
same,Percent coleoptile emergence at 22 days after treatment,"[2]; 6BA 10 ppm, 22 days",6.2%
same,Coleoptile length above ground (mm) at 32 days after treatment,"[2]; 6BA 10 ppm, 32 days",17.1 mm
same,"Length of the emerged coleoptiles at 32 days after treatment, compared to the control","[2]; 6BA, 32 days",no significant effect compared to the control
same,Percent coleoptile emergence at 12 days after treatment,[3],32%
"O=C(Nc1ccccc1)Nc1ccnc(Cl)c1 [CPPU, 1-(2-chloro-4-pyridyl)-3-phenylurea]",Percent coleoptile emergence at 14 days after treatment,[4]; CPPU 1 ppm,0%
same,Percent coleoptile emergence at 14 days after treatment,[4]; CPPU 10 ppm,4%
"C=C1C[C@]23C[C@@]1(O)CC[C@H]2[C@@]12C=C[C@H](O)[C@@](C)(C(=O)O1)[C@H]2[C@@H]3C(=O)O [GA3, (1α,2β,4aα,4bβ,10β)-2,4a,7-trihydroxy-1-methyl-8-methylenegibb-3-ene-1,10-dicarboxylic acid 1,4a-lactone]",Percent coleoptile emergence at 21 days after treatment,[2]; GA3 100 ppm,1.2%
